From the supplement of paper PMC11616607

Tests used:
Assay in all cases: drug sensitivity score (DSS) from 5-point dose-response viability curve (DSS (area-under-curve based score)); higher = more sensitive (stronger growth inhibition or killing); extreme values may be limits of the assay
Settings in all cases: exposure time: 72 h; concentration range: 5 concentrations over 10,000-fold range
[1] = system: CAOV3
In short: (§1)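 Drug sensitivity scores were calculated in Breeze software for each cell line and drug pair; higher scores indicate more sensitivity. A score of zero indicates no response. The underlying assay used 384-well plates: drugs were placed by an Echo 550 acoustic dispenser at five concentrations spanning a 10,000-fold range, 1,500 ovarian cancer or normal ovarian cells were added per well, and cells were kept 3 days at 37°C, 5% CO2. Viability was then measured with CellTiter-Glo luminescence on a PHERAstar FS.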

[2] = system: COV318
In short: as §1

[3] = system: COV362
In short: as §1

[4] = system: HOSE1C
In short: as §1

[5] = system: HOSE2C
In short: as §1

[6] = system: JHOS2
In short: as §1

[7] = system: Kuramochi
In short: as §1

[8] = system: OV90
In short: as §1

[9] = system: OVCAR4
In short: as §1

[10] = system: OVCAR5
In short: as §1

[11] = system: OVCAR8
In short: as §1

[12] = system: Ovsaho
In short: as §1

SMILES | drug sensitivity score [1] | drug sensitivity score [2] | drug sensitivity score [3] | drug sensitivity score [4] | drug sensitivity score [5] | drug sensitivity score [6] | drug sensitivity score [7] | drug sensitivity score [8] | drug sensitivity score [9] | drug sensitivity score [10] | drug sensitivity score [11] | drug sensitivity score [12]
CO[C@H]1C[C@@H]2CC[C@@H](C)[C@@](O)(O2)C(=O)C(=O)N2CCCC[C@H]2C(=O)O[C@H]([C@H](C)C[C@@H]2CC[C@@H](OC(=O)C(C)(CO)CO)[C@H](OC)C2)CC(=O)[C@H](C)/C=C(\C)[C@@H](O)[C@@H](OC)C(=O)[C@H](C)C[C@H](C)/C=C/C=C/C=C/1C [Temsirolimus] | 6.6 | 0 | 0 | 3.9 | 3.2 | 2.8 | 3.2 | 11.2 | 3.1 | 8 | 7.6 | 3
COc1cc([C@@H]2c3cc4c(cc3[C@@H](O[C@@H]3O[C@@H]5CO[C@@H](c6cccs6)O[C@H]5[C@H](O)[C@H]3O)[C@H]3COC(=O)[C@H]23)OCO4)cc(OC)c1O [Teniposide] | 0 | 0 | 0 | 0 | 0 | 0 | 0 | 0 | 0 | 0 | 0 | 0
CN1CCC(COc2cnc(-c3cccc(Cn4nc(-c5cccc(C#N)c5)ccc4=O)c3)nc2)CC1 [Tepotinib] | 0 | 0 | 0 | 0 | 0 | 0.5 | 0 | 0 | 0 | 0 | 0 | 0.8
COc1cc2c(Nc3ccc(Cl)c(Cl)c3F)ncnc2cc1OC[C@@H]1C[C@@H]2CN(C)C[C@@H]2C1 [Tesevatinib] | 8.4 | 0 | 0.9 | 1.6 | 0 | 0.1 | 1.2 | 0 | 1.6 | 5 | 1.3 | 2.2
O=C1CCC(N2C(=O)c3ccccc3C2=O)C(=O)N1 (stereo not given) [Thalidomide] | 0 | 0 | 0 | 0 | 0 | 0 | 0 | 0 | 0 | 0 | 0 | 0
Nc1nc2[nH]cnc2c(=S)[nH]1 [Thioguanine] | 11.9 | 0.7 | 9.4 | 3.4 | 2.4 | 2.3 | 7.2 | 6.3 | 9.9 | 13.4 | 12.7 | 8
O=c1sn(-c2cccc3ccccc23)c(=O)n1Cc1ccccc1 [Tideglusib] | 0 | 0 | 0 | 0 | 0 | 0 | 0 | 0 | 0 | 0 | 0 | 0.1
Cn1cncc1[C@@](N)(c1ccc(Cl)cc1)c1ccc2c(c1)c(-c1cccc(Cl)c1)cc(=O)n2C [Tipifarnib] | 3.1 | 5.2 | 1.7 | 9.2 | 3 | 3.1 | 6.8 | 4.7 | 4.7 | 4.3 | 4.2 | 7.5
CC#CC(=O)N1CC[C@@H](n2c(=O)n(-c3ccc(Oc4ccccc4)cc3)c3c(N)ncnc32)C1 [Tirabrutinib] | 1.6 | 0 | 0 | 0 | 0 | 0 | 1.3 | 0 | 0 | 0.8 | 0 | 0.3
O=C1NC(=O)[C@@H](c2cn3c4c(cccc24)CCC3)[C@@H]1c1c[nH]c2ccccc12 [Tivantinib] | 3.7 | 1.9 | 1.6 | 5.2 | 4.7 | 3 | 2.9 | 2.8 | 1.6 | 4 | 4.1 | 4.2
COc1cc2nccc(Oc3ccc(NC(=O)Nc4cc(C)on4)c(Cl)c3)c2cc1OC [Tivozanib] | 1.8 | 0.6 | 0 | 2.4 | 6.8 | 0.2 | 1.7 | 5.6 | 2.3 | 4 | 2.6 | 0.1
C[C@@H]1CCN(C(=O)CC#N)C[C@@H]1N(C)c1ncnc2[nH]ccc12 [Tofacitinib] | 0 | 0 | 0 | 2.8 | 0.2 | 0 | 0 | 0.3 | 0 | 0.2 | 0 | 0
CC[C@@]1(O)C(=O)OCc2c1cc1n(c2=O)Cc2cc3c(CN(C)C)c(O)ccc3nc2-1 [Topotecan] | 18.2 | 6.3 | 5.7 | 26.6 | 24.8 | 11 | 5.4 | 15.4 | 7.2 | 10.1 | 13.5 | 8.5
CN(C)CCOc1ccc(/C(=C(/CCCl)c2ccccc2)c2ccccc2)cc1 [Toremifene] | 1.8 | 2.3 | 0.6 | 3.5 | 1.6 | 2 | 3.5 | 5.3 | 2 | 4.9 | 2.9 | 3.5
CC(C)C[C@@H](C(=O)N[C@H](C(=O)OC1CCCC1)c1ccccc1)[C@H](O)C(=O)NO [Tosedostat] | 7.4 | 0.4 | 0 | 0 | 2.1 | 15.7 | 0.6 | 12.3 | 7.4 | 8.3 | 6.9 | 5.1
Cc1cc(Nc2cc(N3CCN(C)CC3)nc(Sc3ccc(NC(=O)C4CC4)cc3)n2)n[nH]1 [Tozasertib] | 25.2 | 1.3 | 1.6 | 5.2 | 6.8 | 2.1 | 3.6 | 6.4 | 5.8 | 6.1 | 6.5 | 2.3
CC(=O)Nc1cccc(-n2c(=O)n(C3CC3)c(=O)c3c(Nc4ccc(I)cc4F)n(C)c(=O)c(C)c32)c1 [Trametinib] | 11.8 | 0 | 4.9 | 0 | 0 | 6.7 | 7.1 | 25 | 1.9 | 12.9 | 3.4 | 12.4
CC1=C(/C=C/C(C)=C/C=C/C(C)=C/C(=O)O)C(C)(C)CCC1 [Tretinoin] | 0 | 0 | 0 | 0 | 5.7 | 0.5 | 0 | 0 | 0 | 0 | 0 | 0
NC(=S)N/N=C/c1ncccc1N [Triapine] | 4.1 | 0.6 | 0.5 | 9.7 | 7.7 | 3.1 | 0.5 | 1.1 | 0 | 2.6 | 4.9 | 2.4
O=c1[nH]c(=O)n([C@H]2C[C@H](O)[C@@H](CO)O2)cc1C(F)(F)F [Trifluridine] | 3.3 | 0 | 0 | 0 | 0 | 0.6 | 0 | 2.1 | 1.1 | 2.9 | 2.7 | 2
O=C(CCCCCCC(=O)Nc1ccc([C@H]2O[C@@H](CSc3nc(-c4ccccc4)c(-c4ccccc4)o3)C[C@@H](c3ccc(CO)cc3)O2)cc1)NO [Tubacin] | 1.8 | 2 | 0.7 | 2.5 | 2.6 | 1.7 | 2.6 | 2.4 | 2.7 | 2.4 | 5.6 | 2.3
CN1CCc2c(c3ccccc3n2Cc2ccc(C(=O)NO)cc2)C1 [Tubastatin A] | 0.7 | 0.9 | 1.7 | 4.2 | 2.7 | 1.8 | 1.5 | 3.4 | 1.7 | 5.2 | 4.6 | 1
Cc1cc(Nc2ncnc3ccc(NC4=NC(C)(C)CO4)cc23)ccc1Oc1ccn2ncnc2c1 [Tucatinib] | 0 | 0 | 0 | 0 | 0 | 0 | 0 | 0 | 0 | 0 | 0 | 0
Nc1cc(F)ccc1NC(=O)c1ccc(CNC(=O)/C=C/c2cccnc2)cc1 [Tucidinostat] | 4.3 | 3.9 | 0 | 14.7 | 10.8 | 3.5 | 2.1 | 7.2 | 1.7 | 7 | 8 | 3
CN[C@@H]1C[C@H]2O[C@@](C)([C@@H]1OC)n1c3ccccc3c3c4c(c5c6ccccc6n2c5c31)C(=O)N[C@H]4O [UCN-01] | 19.3 | 18.7 | 17.8 | 27.8 | 29.7 | 15.3 | 14.6 | 22.8 | 13.8 | 18.1 | 18.8 | 23.8
COC(=O)c1ccc2c(c1)[nH]c1ncnc(NCCCN3CCCCC3)c12 [UM729] | 0 | 0 | 0 | 0.2 | 0 | 0 | 0 | 0 | 0 | 1 | 1.6 | 0.1
COc1cc2c(NC3CCN(C(C)C)CC3)nc(C3CCCCC3)nc2cc1OCCCN1CCCC1 [UNC0638] | 0.1 | 0.6 | 4.1 | 0 | 0 | 0 | 0.8 | 5.4 | 0.9 | 3.4 | 3.6 | 0.3
COc1cc2c(NC3CCN(C(C)C)CC3)nc(N3CCC(F)(F)CC3)nc2cc1OCCCN1CCCC1 [UNC0642] | 0.2 | 0 | 0.9 | 0 | 0 | 0 | 0 | 4.4 | 0 | 1 | 0.7 | 0
O=C(c1ccc(C(=O)N2CCC(N3CCCC3)CC2)c(Nc2ccccc2)c1)N1CCC(N2CCCC2)CC1 [UNC1215] | 0 | 0 | 0 | 0 | 0 | 0 | 0 | 0 | 0 | 0 | 0 | 0
CCCCNc1ncc(C(=O)NCc2ccc(-n3ccnc3)cc2)c(NC2CCC(O)CC2)n1 (stereo not given) [UNC2881] | 0.2 | 0 | 0 | 0 | 0.5 | 0 | 0 | 1.2 | 0.1 | 0.6 | 0 | 0.8
